How the values were obtained:
[1] = tested on: Rat; test: concentration in plasma after dosing; details: dosed: 2-Hydroxy-4-methoxybenzophenone, 8 mg/kg, iv, Male, F344
[2] = tested on: Mouse; test: concentration in plasma after dosing; details: 2 h; dosed: 2-Hydroxy-4-methoxybenzophenone; 250 mg/kg; oral; Male; B6C3F1
[3] = tested on: Rat; test: concentration in plasma after dosing; details: dosed: 2-Hydroxy-4-methoxybenzophenone, 250 mg/kg, oral, Male, F344
[4] = tested on: Rat; test: concentration in plasma after dosing; details: dosed: 2-Hydroxy-4-methoxybenzophenone, 8 mg/kg, iv, Female, F344
[5] = tested on: Mouse; test: concentration in plasma after dosing; details: 0.25 h; dosed: 2-Hydroxy-4-methoxybenzophenone; 50 mg/kg; iv; Male; B6C3F1
[6] = tested on: Rat; test: concentration in plasma after dosing; details: dosed: 2-Hydroxy-4-methoxybenzophenone, 250 mg/kg, oral, Male, F344; remark: listed apart in the source
[7] = tested on: Rat; test: concentration in plasma after dosing; details: dosed: 2-Hydroxy-4-methoxybenzophenone, 250 mg/kg, oral, Female, F344
[8] = tested on: Mouse; test: concentration in plasma after dosing; details: 3 h; dosed: 2-Hydroxy-4-methoxybenzophenone; 50 mg/kg; iv; Female; B6C3F1
[9] = tested on: Mouse; test: concentration in plasma after dosing; details: 0.25 h; dosed: 2-Hydroxy-4-methoxybenzophenone; 50 mg/kg; iv; Female; B6C3F1
[10] = tested on: Mouse; test: concentration in plasma after dosing; details: 0.25 h; dosed: 2-Hydroxy-4-methoxybenzophenone; 50 mg/kg; iv; Female; B6C3F1; remark: listed apart in the source
[11] = tested on: Rat; test: concentration in plasma after dosing; details: dosed: Nitrite, 80 mg/kg, oral, Female, F344
[12] = tested on: Rat; test: concentration in plasma after dosing; details: 5 min; dosed: Nitrite; 80 mg/kg; oral; Female; F344
[13] = tested on: Rat; test: concentration in plasma after dosing; details: dosed: Nitrite, 20 mg/kg, iv, Male, F344
[14] = tested on: Rat; test: concentration in plasma after dosing; details: 0.5 h; dosed: Nitrite; 40 mg/kg; oral; Female; F344
[15] = tested on: Rat; test: concentration in plasma after dosing; details: 2 min; dosed: Nitrite; 80 mg/kg; oral; Female; F344
[16] = tested on: Rat; test: concentration in liver after dosing; details: 0.5 h; dosed: Fluorotelomer alcohol 8+2; 80 mg/kg; oral; Female; Harlan Sprague Dawley
[17] = tested on: Rat; test: concentration in liver after dosing; details: 3 h; dosed: Fluorotelomer alcohol 8+2; 24 mg/kg; oral; Male; Harlan Sprague Dawley
[18] = tested on: Rat; test: concentration in plasma after dosing; details: dosed: 678-39-7, 12 mg/kg, iv, Male, F344
[19] = tested on: Rat; test: concentration in brain after dosing; details: 3 h; dosed: Perfluorooctanoic acid; 12 mg/kg; oral; Male; Harlan Sprague Dawley
[20] = tested on: Rat; test: concentration in kidney after dosing; details: 12 h; dosed: Fluorotelomer alcohol 8+2; 80 mg/kg; oral; Female; Harlan Sprague Dawley
[21] = tested on: Rat; test: concentration in kidney after dosing; details: 1 h; dosed: Fluorotelomer alcohol 8+2; 24 mg/kg; oral; Male; Harlan Sprague Dawley
[22] = tested on: Rat; test: concentration in liver after dosing; details: 6 h; dosed: Fluorotelomer alcohol 8+2; 80 mg/kg; oral; Female; Harlan Sprague Dawley
[23] = tested on: Rat; test: concentration in liver after dosing; details: 3 h; dosed: Fluorotelomer alcohol 8+2; 80 mg/kg; oral; Female; Harlan Sprague Dawley
[24] = tested on: Rat; test: concentration in liver after dosing; details: 24 h; dosed: Perfluorooctanoic acid; 12 mg/kg; oral; Male; Harlan Sprague Dawley
[25] = tested on: Rat; test: concentration in kidney after dosing; details: 3 h; dosed: Perfluorooctanoic acid; 12 mg/kg; oral; Male; Harlan Sprague Dawley
[26] = tested on: Rat; test: concentration in plasma after dosing; details: 1.5 h; dosed: Potassium Perfluorobutane Sulfonate; 4 mg/kg; oral; Male; Harlan Sprague Dawley
[27] = tested on: Rat; test: concentration in plasma after dosing; details: dosed: Potassium Perfluorobutane Sulfonate, 4 mg/kg, oral, Male, Harlan Sprague Dawley
[28] = tested on: Rat; test: concentration in plasma after dosing; details: 0.25 h; dosed: Potassium Perfluorobutane Sulfonate; 4 mg/kg; iv; Male; F344
[29] = tested on: Rat; test: concentration in plasma after dosing; details: dosed: Potassium Perfluorobutane Sulfonate, 4 mg/kg, iv, Male, F344
[30] = tested on: Rat; test: concentration in plasma after dosing; details: 0.25 h; dosed: Potassium Perfluorobutane Sulfonate; 4 mg/kg; iv; Male; F344; remark: listed apart in the source
[31] = tested on: Rat; test: concentration in plasma after dosing; details: 0.5 h; dosed: Potassium Perfluorobutane Sulfonate; 4 mg/kg; iv; Male; F344
[32] = tested on: Rat; test: concentration in kidney after dosing; details: 3 h; dosed: Potassium Perfluorobutane Sulfonate; 20 mg/kg; oral; Female; Harlan Sprague Dawley
[33] = tested on: Rat; test: concentration in kidney after dosing; details: 12 h; dosed: Potassium Perfluorobutane Sulfonate; 20 mg/kg; oral; Male; Harlan Sprague Dawley
[34] = tested on: Rat; test: concentration in plasma after dosing; details: dosed: Potassium Perfluorobutane Sulfonate, 4 mg/kg, iv, Male, F344; remark: listed apart in the source
[35] = tested on: Rat; test: concentration in plasma after dosing; details: 1 h; dosed: Potassium Perfluorobutane Sulfonate; 4 mg/kg; iv; Male; F344
[36] = tested on: Rat; test: concentration in liver after dosing; details: 1 h; dosed: Potassium Perfluorobutane Sulfonate; 20 mg/kg; oral; Female; Harlan Sprague Dawley
[37] = tested on: Rat; test: concentration in plasma after dosing; details: dosed: Potassium Perfluorobutane Sulfonate, 4 mg/kg, oral, Male, Harlan Sprague Dawley; remark: listed apart in the source

COc1ccc(C(=O)c2ccccc2)c(O)c1 [2-Hydroxy-4-methoxybenzophenone]
Details | concentration in plasma [ng/mL]
[1], 10 h | 8.52
[1], 10 min | 3770
[3], 3 h | 71.3
[3], 10 min | 35.9
[4], 0.25 h | 1800
[4], 4 h | 38.7
[6], 0.25 h | 318
[6], 4 h | 48.1
[7], 3 h | 95.6
[7], 10 min | 26.9

Details | concentration in plasma [ng/mL]
[2] | 55.1
[5] | 7710
[8] | 134
[9] | 5560
[10] | 4680

O=N[O-] [Nitrite]
concentration in plasma [ng/mL]
Details | 0.5 h | 1.25 h | 4 h | 10 min
[11] | 20500 | – | 4900 | –
[13] | – | 1700 | – | 4800

Details | concentration in plasma [ng/mL]
[12] | 18700
[14] | 6500
[15] | 3900

O=C(O)C(F)(F)C(F)(F)C(F)(F)C(F)(F)C(F)(F)C(F)(F)C(F)(F)F [Perfluorooctanoic acid]
Details | concentration in brain [ng/g] | concentration in kidney [ng/g] | concentration in liver [ng/g]
[16] | – | – | 470
[17] | – | – | 1440
[19] | 1330 | – | –
[20] | – | 626 | –
[21] | – | 175 | –
[22] | – | – | 1430
[23] | – | – | 2300
[24] | – | – | 60800
[25] | – | 23700 | –

[18]
Details | concentration in plasma [ng/mL]
1 h | 342
6 h | 463

O=S(=O)([O-])C(F)(F)C(F)(F)C(F)(F)C(F)(F)F.[K+] [Potassium Perfluorobutane Sulfonate]
Details | concentration in kidney [ng/g] | concentration in liver [ng/g] | concentration in plasma [ng/mL]
[26] | – | – | 13500
[28] | – | – | 16400
[30] | – | – | 17900
[31] | – | – | 12000
[32] | 18600 | – | –
[33] | 3890 | – | –
[35] | – | – | 20200
[36] | – | 30300 | –

concentration in plasma [ng/mL]
Details | [27] | [29] | [34] | [37]
0.25 h | 3220 | 26000 | – | –
3 h | – | – | 10200 | 11700
5 min | – | – | 29400 | 398
6 h | 9970 | 7280 | – | –

Source: EPA's CvTdb concentration-time database
